Like-named read-outs stand apart in the source and are kept apart here.
What was measured:
[1] = Parallel artificial membrane permeability assay (PAMPA); conditions: PAMPA, PBS pH 7.4, 200 µM, 5 h, room temperature
Experimental: The parallel artificial membrane permeability assay (PAMPA) is a fast and easy high-throughput assay to determine passive permeability of compounds through semi-permeable membranes (for example the blood-brain-barrier) without the influence of efflux pumps or transporter molecules.
With the high-throughput PAMPA the newly synthesized compounds were tested for their passive permeability through cell membranes without the influence of efflux pumps or transporter proteins. The assay was performed using a Corning® Gentest^TM Pre-coated PAMPA Plate System with 96-well polystyrene plates. The bottom of the acceptor plate consists of a porous membrane, whereby the pores are lined with a lipid-oil-lipid triple layer. Stock solutions of each test compound at 10 mM were prepared in DMSO or methanol and diluted with phosphate-buffered saline (PBS at a pH of 7.4) to a final concentration of 200 µM. […] The donor plate (bottom plate) was filled with the compound solutions, whereby all compounds were tested in quadruplicates. Each well of the acceptor plate (top plate) was filled with PBS buffer. Donor and acceptor plates were combined and incubated at room temperature for 5 h. After that, the plates were separated and 150 µL of each well of both plates were transferred to 96-well UV plates (Greiner Bio-One). Absorption at different wavelengths covering a range from 200 to 300 nm was measured using a SpectraMax M3 UV plate reader. […] The plates were analyzed at the wavelength where the R^2 value of the calibration curve was higher than 0.99 [41]. […] (2) cequ=[cD(t)∗VD+cA(t)∗VA]/(VD+VA) where: • VD—donor well volume (0.3 mL); • VA—acceptor well volume (0.2 mL); • cA(t)—acceptor well compound concentration at time t; • cD(t)—donor well compound concentration at time t.
Recovery of compounds from donor and acceptor wells (mass retention) was calculated as shown in the equation below. Data were only accepted when recovery exceeded 70%. (3) R=1−[cD(t)∗VD+cA(t)∗VA]/(c0∗VD) where: • R—mass retention (%); • VD—donor well volume (0.3 mL); • VA—acceptor well volume (0.2 mL); • cA(t)—acceptor well compound concentration at time t; • cD(t)—donor well compound concentration at time t; • c0—initial donor well compound concentration (200 µM).

P. falciparum NF54 [2] = tested on: P. falciparum NF54; design: method as in PMID 34832891; conditions: comparison compounds 1-4 of the first series, cited from earlier work; for IC50: read-out: PfNF54 IC50
L-6 cells [3] = tested on: L-6 cells; design: method as in PMID 34832891; conditions: comparison compounds 1-4 of the first series; read-out: Cytotoxicity L-6 Cells IC50; cited from earlier work
P. falciparum NF54 [4] = assay: In vitro microplate assay against P. falciparum NF54 (3H-hypoxanthine incorporation); type: cell-based, Plasmodium falciparum; conditions: for IC50: average of four determinations, read-out: PfNF54 IC50
Experimental: (§1) All newly prepared compounds were tested for their in vitro activity against the chloroquine sensitive strain NF54 of P. falciparum. Cytotoxicity was determined using L-6 cells (rat skeletal myofibroblasts). Chloroquine and podophyllotoxin were used as standards.
The in vitro activity of compounds against erythrocytic stages of the drug sensitive NF54 strain of P. falciparum […] was determined using a ^3H-hypoxanthine incorporation assay. Compounds were dissolved in DMSO at 10 mg/mL and further diluted in medium before adding to parasite cultures that were incubated in RPMI 1640 medium without hypoxanthine, supplemented with HEPES (5.94 g/L), NaHCO3 (2.1 g/L), neomycin (100 U/mL), AlbumaxR (5 g/L) and washed human red blood cells A+ at 2.5% haematocrit (0.3% parasitaemia). Serial drug dilutions of eleven 3-fold dilutions steps covering a range from 100 to 0.002 µg/mL were prepared. The 96-well plates were incubated in a humidified atmosphere at 37 °C; 4% CO2, 3% O2, 93% N2. After 48 h of incubation time, 0.05 mL of ^3H-hypoxanthine (=0.5 µCi) was added to each well of the plate. The plates were incubated for further 24 h under the same conditions. Plates were then harvested using a Betaplate^TM cell harvester (Wallac, Zurich, Switzerland). Red blood cells were transferred onto a glass fiber filter and then washed with distilled water. The dried filters were inserted into a plastic foil with 10 mL of scintillation fluid and counted in a Betaplate^TM liquid scintillation counter (Wallac, Zurich, Switzerland). IC50 values were calculated from sigmoidal inhibition curves by linear regression using Microsoft Excel. Chloroquine (Sigma C6628) was used as control.

in vitro = conditions: rat
Experimental: as §1
(§2) The cytotoxicity assays were performed using 96-well microtiter plates, each well containing 4000 L-6 cells (a primary cell line derived from rat skeletal myofibroblasts, ATCC CRL-1458^TM) in 0.1 mL of RPMI 1640 medium supplemented with 1% glutamine (200 mM) and 10% fetal bovine serum. Serial drug dilutions of eleven 3-fold dilution steps covering a range from 100 to 0.002 µg/mL were prepared. After 70 h of incubation, the plates were inspected under an inverted microscope to assure growth of the controls and sterile conditions. Then, 0.01 mL resazurin solution (resazurin, 12.5 mg in 100 mL double-distilled water) was added to each well and the plates were incubated for another 2 h. The plates were read with a Spectramax Gemini XS microplate fluorometer (Molecular Devices Cooperation, Sunnyvale, CA, USA) using an excitation wavelength of 536 nm and an emission wavelength of 588 nm. IC50 values were calculated by linear regression from the sigmoidal dose inhibition curves using SoftmaxPro software (Molecular Devices Cooperation, Sunnyvale, CA, USA). Podophyllotoxin (Sigma P4405) was used as control.

[5] = Solubility in DMSO and methanol (PAMPA stock solutions); type: physicochemical
Experimental: Permeability is defined using hydrochlorothiazide (Pe = 0.09 × 10^−6 cm/s) and caffeine (Pe = 8.00 × 10^−6 cm/s) as standards.
With the high-throughput PAMPA the newly synthesized compounds were tested for their passive permeability through cell membranes without the influence of efflux pumps or transporter proteins. The assay was performed using a Corning® Gentest^TM Pre-coated PAMPA Plate System with 96-well polystyrene plates. The bottom of the acceptor plate consists of a porous membrane, whereby the pores are lined with a lipid-oil-lipid triple layer. Stock solutions of each test compound at 10 mM were prepared in DMSO or methanol and diluted with phosphate-buffered saline (PBS at a pH of 7.4) to a final concentration of 200 µM. Hydrochlorothiazide (Pe = 0.9 nm/s) and caffeine (Pe = 80 nm/s) were used as standards. The donor plate (bottom plate) was filled with the compound solutions, whereby all compounds were tested in quadruplicates. Each well of the acceptor plate (top plate) was filled with PBS buffer. Donor and acceptor plates were combined and incubated at room temperature for 5 h. After that, the plates were separated and 150 µL of each well of both plates were transferred to 96-well UV plates (Greiner Bio-One). Absorption at different wavelengths covering a range from 200 to 300 nm was measured using a SpectraMax M3 UV plate reader. By measuring serial dilutions of five dilution steps covering a range from 200 to 12.5 µM, a calibration curve was prepared. The plates were analyzed at the wavelength where the R^2 value of the calibration curve was higher than 0.99 [41]. […] (2) cequ=[cD(t)∗VD+cA(t)∗VA]/(VD+VA) where: • VD—donor well volume (0.3 mL); • VA—acceptor well volume (0.2 mL); • cA(t)—acceptor well compound concentration at time t; • cD(t)—donor well compound concentration at time t.

L-6 cells [6] = assay: in vitro
Experimental: as §1, §2

[7] = Plasmodium falciparum, NF54, chloroquine sensitive strain NF54, erythrocytic stages
[8] = reason why permeability could not be detected

Molecule | S.I. = IC50 (Cyt.)/IC50 (PfNF54) (P. falciparum NF54 [2]) | IC50 (P. falciparum NF54 [2]) | IC50 (L-6 cells [3]) | IC50 (P. falciparum NF54 [4]; [7]) | IC50 at 72 h (in vitro) | solubility in DMSO and methanol [5, 8] | also measured
CC(C)(C)OC(=O)N1CCN(c2ccccc2NC(=O)c2cccc(C(F)(F)F)c2Oc2ccc(F)cc2)CC1 [Compound 1, reference compound] | 316.9 | 413 nM | 131 µM |  |  |  | Pe [1]: 2.37 10^−6 cm/s
CC(C)(C)OC(=O)N1CCN(c2ccc(NC(=O)c3cccc(C(F)(F)F)c3Oc3ccc(F)cc3)cc2)CC1 [Compound 2] | 461.0 | 269 nM | 124 µM |  |  |  | 
CC(C)(C)C(=O)N1CCN(c2ccccc2NC(=O)c2cccc(C(F)(F)F)c2Oc2ccc(F)cc2)CC1 [Compound 3] | 299.7 | 617 nM | 185 µM |  |  |  | 
CC(C)(C)C(=O)N1CCN(c2ccc(NC(=O)c3cccc(C(F)(F)F)c3Oc3ccc(F)cc3)cc2)CC1 [Compound 4] | 171.9 | 580 nM | 99.6 µM |  |  |  | 
CC(C)(C)OC(=O)N1CCN(c2ccccc2NC(=O)c2ccccc2Oc2ccc(F)cc2)CC1 [Compound 26, tert-Butyl 4-{2-[2-(4-fluorophenoxy)benzamido]phenyl}piperazine-1-carboxylate] |  |  |  | 627 nM | 154 µM | insufficient solubility | 
CC(C)(C)C(=O)N1CCN(c2ccccc2NC(=O)c2ccccc2Oc2ccc(F)cc2)CC1 [Compound 33, N-{2-[4-(2,2-Dimethylpropanoyl)piperazin-1-yl]phenyl}-2-(4-fluorophenoxy)benzamid] |  |  |  | 2140 nM | 38.3 µM | insufficient solubility | 
CC(C)(C)C(=O)N1CCN(c2ccc(NC(=O)c3cccc([N+](=O)[O-])c3Oc3ccc(F)cc3)cc2)CC1 [Compound 44, N-{4-[4-(2,2-Dimethylpropanoyl)piperazin-1-yl]phenyl}-2-(4-fluorophenoxy)-3-nitrobenzamid] |  |  |  | 1500 nM | 144 µM | insufficient solubility | 
CC(C)(C)OC(=O)N1CCN(c2ccc(NC(=O)c3cccc(N)c3Oc3ccc(F)cc3)cc2)CC1 [Compound 47, tert-Butyl 4-{4-[3-amino-2-(4-fluorophenoxy)benzamido]phenyl}piperazine-1-carboxylate] |  |  |  | 3080 nM | 158 µM |  | Papp at 5 h, 200 µM ([1]; pH 7.4, Pe): 0.62 ×10⁻⁶ cm/s
tert-Butyl 4-{4-[3-fluoro-2-(4-fluorophenoxy)benzamido]phenyl}piperazin-1-carboxylate [Compound 27] |  |  |  |  |  |  | S.I. = IC50 (Cyt.)/IC50 (PfNF54) (P. falciparum NF54 [4]; L-6 cells IC50 / PfNF54 IC50): 237.5; IC50 (P. falciparum NF54 [4]; chloroquine sensitive strain NF54, erythrocytic stages): 650 nM; IC50 (L-6 cells [6]): 154 µM; solubility in DMSO and methanol [5]: insufficient solubility

Reference: article PMC9783227, “New Derivatives of the Multi-Stage Active Malaria Box Compound MMV030666 and Their Antiplasmodial Potencies” (Pharmaceuticals, 2022)
